Measured values from PMC8000724, “Trans-Epithelial Transport, Metabolism, and Biological Activity Assessment of the Multi-Target Lupin Peptide [sequence] (P5) and Its Metabolite [sequence] (P5-Met)” (Nutrients, 2021).
Where two headings read alike, the source gives them in different places.

Key:
[1] = tested on: differentiated Caco-2 cells; details: cited from earlier work
Protocol: From a physiological point of view, the dynamic equilibrium between the transport and degradation of bioactive peptides is crucially important. […] Indeed, the transport is more efficient and its degradation less extensive when P5 is incubated in the presence of peptides P3 and P7. It is important to note, however, that P5 and P7 have completely different behaviors, since the transport rate of P5 tested alone is 1.8 ...

[2] = tested on: LDLR on HepG2 cell surface; experiment: In-cell Western (ICW) assay, LDLR localized on HepG2 cell surface; format: cell-based, human; details: PCSK9 alone 4 µg/mL, 2 h, mean ± SD
Protocol: For the experiments, a total of 3 × 10^4 HepG2 cells/well were seeded in 96-well plates. The following day, cells were washed with PBS and then starved overnight (O/N) in DMEM without FBS and antibiotics. After starvation, HepG2 cells were treated with 4.0 μg/mL PCSK9-WT and 4.0 μg/mL PCSK9 + peptides P5 and/or P5-met (50 µM) and vehicle (H2O) for 2 h at 37 °C under 5% CO2 atmosphere. Subsequently, they were fixed in 4% paraformaldehyde for 20 min at room temperature (RT). Cells were washed 5 times with 100 µL of PBS/well (each wash was for 5 min at RT) and the endogenous peroxides activity quenched adding 3% H2O2 for 20 min at RT. Non-specific sites were blocked with 100 µL/well of 5% bovine serum albumin (BSA, Sigma) in PBS for 1.5 h at RT. LDLR primary antibody solution (1:3000 in 5% BSA in PBS, 25 µL/well) was incubated O/N at +4 °C. Subsequently, the primary antibody solution was discarded and each sample was washed 5 times with 100 µL/well of PBS (each wash was for 5 min at RT). Goat anti-rabbit Ig-HRP secondary antibody solution (Santa Cruz) (1:6000 in 5% BSA in PBS, 50 µL/well), was added and incubated 1 h at RT. The secondary antibody solution was washed 5 times with 100 µL/well of PBS (each wash for 5 min at RT). Freshly prepared TMB substrate (Pierce, 100 µL/well) was added and the plate was incubated at RT until desired color was developed. The reaction was stopped with 2 M H2SO4 and then the absorbance at 450 nm was measured using the microplate reader Synergy H1 (Winooski, VT, USA). After the read, cells were stained by adding 1× Janus Green stain, incubating for 5 min at RT. The dye was removed and the sample washed 5 times with water. Afterward 100 µL 0.5 M HCl for well were added and incubated for 10 min. After 10 seconds shaking, the OD at 595 nm was measured using the microplate reader Synergy H1 (Winooski, VT, USA).

HepG2 cells = experiment: Fluorescent LDL uptake by HepG2 cells; format: cell-based, human; details: PCSK9 alone 4 µg/mL, 2 h; mean ± SD
Protocol: HepG2 cells (3 × 10^4/well) were seeded in 96-well plates and kept in complete growth medium for 2 days before treatment. The third day, cells were washed with PBS and then starved overnight (O/N) in DMEM without FBS and antibiotics. After starvation, they were treated with 4.0 μg/mL PCSK9 and 4.0 μg/mL PCSK9 + P5 and P5-met peptides (50.0 µM), and vehicle (H2O) for 2 h with at 37 °C under 5% CO2 atmosphere. At the end of the treatment, the culture medium was replaced with 50 μL/well LDL-DyLight™ 550 working solution (Cayman Chemical Company, Ann Arbor, MI, USA) prepared in DMEM without FBS and antibiotics. The cells were additionally incubated for 2 h at 37 °C and then the culture medium was aspirated and replaced with PBS (100 μL/well). The degree of LDL uptake was measured using the Synergy H1 fluorescent plate reader (Winooski, VT, USA) (excitation and emission wavelengths 540 and 570 nm, respectively). Fluorescent LDL-uptake was finally assessed following optimized protocol.

Substance | Transport rate across Caco-2 monolayer ([1]; in mixture) | Transport rate across Caco-2 monolayer ([1]; tested alone) | Decrease of LDLR protein levels on HepG2 cell surface versus the control cells [2] [%] | Reduction of ability of HepG2 cells to uptake fluorescent LDL versus untreated cells (HepG2 cells) [%]
LTFPGSAED [Peptide P7, lupin peptide used in mixture with P5 in the transport experiments] | 1.98 ± 0.21 ng/(mL × min) | 4.2 ± 0.6 ng/(mL × min) |  | 
PCSK9: proprotein convertase subtilisin/kexin type-9 protein added to HepG2 cells at 4.0 μg/mL |  |  | 24.7 ± 1.9 | 43.5 ± 9.7
